The values that follow come from US9695151B2, “3,4-dihydro-2H-isoquinoline-1-one and 2,3-dihydro-isoindol-1-one compounds” (Hoffmann-La Roche Inc., priority 2013, dated 2017).

The target in experiment [1] is CYP11B2 (Homo sapiens (Human), UniProt P19099). The experiment is described as follows: G-402 cellular enzyme assay, human CYP11B2 (aldosterone release). It is filed as cell-based. As to conditions: G-402 cells, 1 μM Deoxycorticosterone. From the text: (§1) Herein we identified the use of the G-402 cell line as a host cell to ectopically express (transiently or stably) enzymes of the CYP11 family. Specifically we developed stable G-402 cells expressing ectopically human CYP11B1, human CYP11B2, human CYP11A1, cynmolgus CYP11B1 or cynomolgus CYP11B2 enzyme activity. Importantly the identified cell line G-402 expresses co-factors (adrenodoxin and adrenodoxin reductase) important for the activity of the CYP11 family and no relevant enzyme activity of the CYP11 family (in comparison to H295R cells) was detected in these cells. Therefore the G-402 cell line is uniquely suited as a host cell for the ectopic expression of enzymes from the CYP11 family.
Chain of CYP11B2 (P19099 25-503): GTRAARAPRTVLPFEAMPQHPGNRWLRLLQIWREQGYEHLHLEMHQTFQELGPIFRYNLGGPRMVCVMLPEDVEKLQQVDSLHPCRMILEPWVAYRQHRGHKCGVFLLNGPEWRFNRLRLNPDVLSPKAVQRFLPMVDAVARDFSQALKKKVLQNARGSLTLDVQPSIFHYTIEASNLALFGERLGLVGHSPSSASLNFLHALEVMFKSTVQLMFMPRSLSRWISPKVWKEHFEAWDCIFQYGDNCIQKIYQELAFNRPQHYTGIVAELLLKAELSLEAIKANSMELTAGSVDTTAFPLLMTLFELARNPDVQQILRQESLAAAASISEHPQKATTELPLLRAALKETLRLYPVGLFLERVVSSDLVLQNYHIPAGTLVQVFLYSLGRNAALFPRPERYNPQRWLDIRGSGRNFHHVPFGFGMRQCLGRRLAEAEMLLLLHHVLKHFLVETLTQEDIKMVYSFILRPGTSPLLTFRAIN
(§2) G-402 cells can be obtained from ATCC (CRL-1440) and were originally derived from a renal leiomyoblastoma.
(§3) The expression plasmids contains the ORF for either human/cyno CYP11B1 or CYP11B2 under the control of a suitable promoter (CMV-promoter) and a suitable resistance marker (neomycin). Using standard techniques the expression plasmid is transfected into G-402 cells and these cells are then selected for expressing the given resistance markers. Individual cell-clones are then selected and assessed for displaying the desired enzymatic activity using 11-Deoxycorticosterone (Cyp11B2) or 11-Deoxycortisol (Cyp11B1) as a substrate.
(§4) G-402 cells expressing CYP11 constructs were established as described above and maintained in McCoy's 5a Medium Modified, ATCC Catalog No. 30-2007 containing 10% FCS and 400 μg/ml G418 (Geneticin) at 37° C. under an atmosphere of 5% CO2/95% air. Cellular enzyme assays were performed in DMEM/F12 medium containing 2.5% charcoal treated FCS and appropriate concentration of substrate (0.3-10 uM 11-Deoxycorticosterone, 11-Deoxycortisol or Corticosterone). For assaying enzymatic activity, cells were plated onto 96 well plates and incubated for 16 h. An aliquot of the supernatant is then transferred and analyzed for the concentration of the expected product (Aldosterone for CYP11B2; Cortisol for CYP11B1). The concentrations of these steroids can be determined using HTRF assays from CisBio analyzing either Aldosterone or Cortisol.
(§5) Inhibition of the release of produced steroids can be used as a measure of the respective enzyme inhibition by test compounds added during the cellular enzyme assay. The dose dependent inhibition of enzymatic activity by a compound is calculated by means of plotting added inhibitor concentrations (x-axes) vs. measured steroid/product level (y-axes). The inhibition is then calculated by fitting the following 4-parameter sigmoidal function (Morgan-Mercer-Flodin (MMF) model) to the raw data points using the least squares method:
(§6) [formula] wherein, A is the maximum y value, B is the EC50 factor determined using XLFit, C is the minimum y value and D is the slope value.
(§7) EC50 values for compounds claimed herein were tested with the G402-based assay system described. Cyp11B2 enzyme activity was tested in presence of 1 μM Deoxycorticosterone and variable amounts of inhibitors; Cyp11B1 enzyme activity was tested in presence of 1 μM Deoxycortisol and variable amounts of inhibitors.

Experiment [2] addresses human CYP11B1 (Homo sapiens (Human), UniProt P15538). The experiment is described as follows: G-402 cellular enzyme assay, human CYP11B1 (cortisol release). It is filed as cell-based. To be noted: G-402 cells, 1 μM Deoxycortisol.
Source text: as §1, §2, §3, §4, §5, §6, §7

Chain of human CYP11B1 (P15538 25-503): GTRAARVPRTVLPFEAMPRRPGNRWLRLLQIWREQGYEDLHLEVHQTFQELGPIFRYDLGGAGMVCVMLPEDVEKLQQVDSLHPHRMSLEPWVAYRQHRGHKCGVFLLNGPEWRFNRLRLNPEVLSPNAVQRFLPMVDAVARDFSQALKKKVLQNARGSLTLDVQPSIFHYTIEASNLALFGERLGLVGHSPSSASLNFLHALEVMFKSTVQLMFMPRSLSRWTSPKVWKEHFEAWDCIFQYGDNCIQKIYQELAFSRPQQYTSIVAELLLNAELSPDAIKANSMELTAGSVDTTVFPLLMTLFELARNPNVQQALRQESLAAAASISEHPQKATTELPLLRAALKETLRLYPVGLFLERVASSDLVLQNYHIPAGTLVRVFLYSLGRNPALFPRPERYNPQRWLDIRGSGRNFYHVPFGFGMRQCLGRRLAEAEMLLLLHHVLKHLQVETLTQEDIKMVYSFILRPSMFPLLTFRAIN

With `CCS(=O)(=O)N1CC(Nc2cncc(N3C(=O)c4ccc(Cl)cc4[C@@H]3C)c2)C1` (single isomer, unassigned) [Example 42, (3S or 3R)-5-Chloro-2-[5-[(1-ethylsulfonylazetidin-3-yl)amino]-3-pyridyl]-3-methyl-isoindolin-1-one], the results for the EC50 in experiment [1] and in experiment [2] were 12 nM and 1.07 µM, respectively.

Turning to `CCS(=O)(=O)N1CCCC(Nc2cncc(N3C(=O)c4ccc(Cl)cc4C3(C)C)c2)C1` (single isomer, unassigned) [Example 24, 5-Chloro-2-[5-[[(3R or 3S)-1-ethylsulfonylpiperidin-3-yl]amino]pyridin-3-yl]-3,3-dimethylisoindol-1-one], the concentration giving a half-maximal response (EC50) in experiment [1] came out at 352 nM; in experiment [2], 38 µM.

Take `CCCS(=O)(=O)N1CCC(N(C)c2cncc(N3C(=O)c4ccc(Cl)cc4C3(C)C)c2)C1` (single isomer, unassigned) [Example 17, 5-Chloro-3,3-dimethyl-2-[5-[methyl-[(3S or 3R)-1-propylsulfonylpyrrolidin-3-yl]amino]pyridin-3-yl]isoindol-1-one]: the results for the half-maximal effective concentration (EC50) in experiment [1] and in experiment [2] were 1 nM and 0.129 µM, respectively.

Take `CC(C)S(=O)(=O)N1CC2(CC(Nc3cncc(N4C(=O)c5ccc(Cl)cc5C4(C)C)c3)C2)C1` [Example 38, 5-Chloro-3,3-dimethyl-2-[5-[(2-propan-2-ylsulfonyl-2-azaspiro[3.3]heptan-6-yl)amino]pyridin-3-yl]isoindol-1-one]: the EC50 in experiment [1] was 11 nM; in experiment [2] it was 8.23 µM.

Consider `CCS(=O)(=O)N1CCCC(Nc2cncc(N3C(=O)c4ccc(Cl)cc4C3(C)C)c2)C1` (single isomer, unassigned) [Example 25, 5-Chloro-2-[5-[[(3S or 3R)-1-ethylsulfonylpiperidin-3-yl]amino]pyridin-3-yl]-3,3-dimethylisoindol-1-one], for which the values for the EC50 in experiment [1] and in experiment [2] were 443 nM and 13.9 µM, respectively.

For the compound `CCC(=O)N1CC(Nc2cncc(N3C(=O)c4ccc(Cl)cc4[C@H]3C)c2)C1` (single isomer, unassigned) [Example 39, (3R or 3S)-5-Chloro-3-methyl-2-[5-[(1-propanoylazetidin-3-yl)amino]-3-pyridyl]isoindolin-1-one], the 50% effective concentration (EC50) in experiment [1] was determined as 92 nM; in experiment [2], 10.8 µM.

For the compound `CC(C)S(=O)(=O)N1CC(Nc2cncc(N3CCc4cc(Cl)ccc4C3=O)c2)C1` [Example 31, 6-Chloro-2-[5-[(1-propan-2-ylsulfonylazetidin-3-yl)amino]pyridin-3-yl]-3,4-dihydroisoquinolin-1-one], the EC50 is 34 nM in experiment [1] and 3.84 µM in experiment [2].

For `CN(c1cncc(N2C(=O)c3ccc(Cl)cc3C2(C)C)c1)C1CCN(S(C)(=O)=O)CC1` [Example 21, 5-Chloro-3,3-dimethyl-2-[5-[methyl-(1-methylsulfonylpiperidin-4-yl)amino]pyridin-3-yl]isoindol-1-one], the results for the EC50 in experiment [1] and in experiment [2] were 3 nM and 0.003 µM, respectively.

As to `CCCS(=O)(=O)N1CC(N(C)c2cncc(N3C(=O)c4ccc(Cl)cc4C3(C)C)c2)C1` [Example 14, 5-Chloro-3,3-dimethyl-2-[5-[methyl-(1-propylsulfonylazetidin-3-yl)amino]pyridin-3-yl]isoindol-1-one], the 50% effective concentration (EC50) in experiment [1] came out at 0.6 nM; in experiment [2], 0.025 µM.

Take `CC(=O)N1CC(Nc2cncc(N3CCc4cc(Cl)ccc4C3=O)c2)C1` [Example 32, 2-[5-[(1-Acetylazetidin-3-yl)amino]pyridin-3-yl]-6-chloro-3,4-dihydroisoquinolin-1-one]: the EC50 came to 215 nM in experiment [1] and 41.1 µM in experiment [2].

`CCS(=O)(=O)N1CC(Nc2cncc(N3C(=O)c4ccc(Cl)cc4C3(C)C)c2)C1` [Example 7, 5-Chloro-2-[5-[(1-ethylsulfonylazetidin-3-yl)amino]pyridin-3-yl]-3,3-dimethylisoindol-1-one]: the EC50 was determined as 8 nM in experiment [1] and 1.64 µM in experiment [2].

Regarding `CC(C)S(=O)(=O)N1CCC(N(C)c2cncc(N3C(=O)c4ccc(Cl)cc4C3(C)C)c2)C1` (single isomer, unassigned) [Example 15, 5-Chloro-3,3-dimethyl-2-[5-[methyl-[(3S or 3R)-1-propan-2-ylsulfonylpyrrolidin-3-yl]amino]pyridin-3-yl]isoindol-1-one], the 50% effective concentration (EC50) was found to be 1 nM in experiment [1] and 0.732 µM in experiment [2].

Consider `CCC(=O)N1CC2(CC(Nc3cncc(N4C(=O)c5ccc(Cl)cc5C4(C)C)c3)C2)C1` [Example 36, 5-Chloro-3,3-dimethyl-2-[5-[(2-propanoyl-2-azaspiro[3.3]heptan-6-yl)amino]pyridin-3-yl]isoindol-1-one], for which the EC50 is 44 nM in experiment [1] and 15.4 µM in experiment [2].

In the case of `CCS(=O)(=O)N1CC(Nc2cncc(N3C(=O)c4ccc(Cl)cc4[C@H]3C)c2)C1` (single isomer, unassigned) [Example 41, (3R or 3S)-5-Chloro-2-[5-[(1-ethylsulfonylazetidin-3-yl)amino]-3-pyridyl]-3-methyl-isoindolin-1-one], the EC50 in experiment [1] turned out to be 39 nM; in experiment [2], 10.9 µM.

For the compound `CCCS(=O)(=O)N1CCC(N(C)c2cncc(N3C(=O)c4ccc(Cl)cc4C3(C)C)c2)C1` (single isomer, unassigned) [Example 18, 5-Chloro-3,3-dimethyl-2-[5-[methyl-[(3R or 3S)-1-propylsulfonylpyrrolidin-3-yl]amino]pyridin-3-yl]isoindol-1-one], the half-maximal effective concentration (EC50) in experiment [1] was found to be 1 nM; in experiment [2] it was 0.233 µM.

Turning to `CCC(=O)N1CCC(N(C)c2cncc(N3C(=O)c4ccc(Cl)cc4C3(C)C)c2)CC1` [Example 19, 5-Chloro-3,3-dimethyl-2-[5-[methyl-(1-propanoylpiperidin-4-yl)amino]pyridin-3-yl]isoindol-1-one], the results for the concentration giving a half-maximal response (EC50) in experiment [1] and in experiment [2] were 0.7 nM and 0.002 µM, respectively.

Turning to `CCS(=O)(=O)N1CCC(Nc2cncc(N3C(=O)c4ccc(Cl)cc4C3(C)C)c2)CC1` [Example 6, 5-Chloro-2-[5-[(1-ethylsulfonylpiperidin-4-yl)amino]pyridin-3-yl]-3,3-dimethylisoindol-1-one], the EC50 in experiment [1] worked out at 4 nM; in experiment [2], 1.54 µM.

Turning to `CCC(=O)N1CC(Nc2cncc(N3CCc4cc(Cl)ccc4C3=O)c2)C1` [Example 29, 6-Chloro-2-[5-[(1-propanoylazetidin-3-yl)amino]pyridin-3-yl]-3,4-dihydroisoquinolin-1-one], the figures for the concentration for a half-maximal effect (EC50) in experiment [1] and in experiment [2] were 178 nM and 23.7 µM, respectively.

As for `CC(C)S(=O)(=O)N1CCC(N(C)c2cncc(N3C(=O)c4ccc(Cl)cc4C3(C)C)c2)C1` (single isomer, unassigned) [Example 16, 5-Chloro-3,3-dimethyl-2-[5-[methyl-[(3R or 3S)-1-propan-2-ylsulfonylpyrrolidin-3-yl]amino]pyridin-3-yl]isoindol-1-one], the EC50 in experiment [1] was found to be 0.5 nM; in experiment [2] it was 0.117 µM.

For the compound `CC1(C)c2cc(Cl)ccc2C(=O)N1c1cncc(NC2CN(S(C)(=O)=O)C2)c1` [Example 8, 5-Chloro-3,3-dimethyl-2-[5-[(1-methylsulfonylazetidin-3-yl)amino]pyridin-3-yl]isoindol-1-one], the results for the half-maximal effective concentration (EC50) in experiment [1] and in experiment [2] were 17 nM and 2.8 µM, respectively.

For `CC(C)S(=O)(=O)N1CCCC(Nc2cncc(N3C(=O)c4ccc(Cl)cc4C3(C)C)c2)C1` (single isomer, unassigned) [Example 27, 5-Chloro-3,3-dimethyl-2-[5-[[(3S or 3R)-1-propan-2-ylsulfonylpiperidin-3-yl]amino]pyridin-3-yl]isoindol-1-one], the concentration giving a half-maximal response (EC50) was 1510 nM in experiment [1] and > 30 µM in experiment [2].

On to `CCS(=O)(=O)N1CC(Nc2cncc(N3C(=O)c4ccc(Cl)cc4C3C)c2)C1` (stereo not shown) [Example 34, 5-Chloro-2-[5-[(1-ethylsulfonylazetidin-3-yl)amino]pyridin-3-yl]-3-methyl-3H-isoindol-1-one], for which the EC50 is 70 nM in experiment [1] and 4.53 µM in experiment [2].

`CCC(=O)N1CC(Nc2cncc(N3Cc4cc(Cl)ccc4C3=O)c2)C1` [Example 28, 5-Chloro-2-[5-[(1-propanoylazetidin-3-yl)amino]pyridin-3-yl]-3H-isoindol-1-one]: the EC50 was 954 nM in experiment [1] and > 30 µM in experiment [2].

A word on the EC50: it is the concentration needed to bring the measured effect to its halfway point. Read a low EC50 as an effect from little substance.
